These results are taken from patent US20260028390A1, “ALPHA1-ANTITRYPSIN FOR USE IN THE TREATMENT OF DISEASES OR DISORDERS OF THE NERVOUS SYSTEM SUCH AS CHRONIC INFLAMMATORY DEMYELINATING POLYNEUROPATHY” (Ageronix SA, priority 2022, published 2026).

Values joined by “and” are separate entries in the source; they are usually repeats but may differ in a detail not shown here. Equal values may be shown once.

In one assay the test system is CIDP mice. Description: Sciatic nerve histology, CIDP mouse model. Format: in vivo. On the procedure:
C57BL/6 mice were received at 8 weeks of age and housed under controlled conditions for the duration of the study. Three groups of 4 animals each were assigned to the following subcutaneous treatments twice daily at 7:00 AM and 7:00 PM for 2 weeks, from 20 to 35 days after the start of disease induction: • Wild type (WT) mice receiving the vehicle, 0.9% NaCl (positive control) • CIDP mice receiving the vehicle, 0.9% NaCl (negative control) • CIDP mice receiving human AAT (AAT), 50 mg/kg per injection
Disease induction consisted in subcutaneous injection of mouse sciatic nerve homogenate in phosphate buffer saline (PBS)+Freund's adjuvant mixture at 10 mL/kg. For each treatment, 3 different body sites injections were performed. Control mice also received three subcutaneous injections of PBS+Freund's adjuvant at the same 3 different body sites.
On the first (Day 20) and last (Day 35) day of treatment, the neuromuscular and performance of animals was tested with a rotarod test, grip test and a sensory test using the Von Frey filament test, as well as sciatic nerve electrophysiology test. After the last treatment at Day 35, these tests were repeated, animals were sacrificed and the left sciatic nerve was sampled for histological evaluation of the number and size of […].

Another assay concerns SH-SY5Y cells. As to the kind of experiment: Cell growth (cell count, morphology) of SH-SY5Y treated with 6-OHDA. Format: cell-based. To be noted: 6-OHDA combined with AAT 25 μM, day 4 of culture, p=0.003. On the procedure:
SH-SY5Y cells, which are commonly used to model neurodegenerative disorders, were used to produce an in vitro Parkinson's model (Que R, et al., 2021, Front. Immunol. 12). Cells were cultured in DMEMF12/Glutamax supplemented with 10% FBS.
Cells were treated for 24 hours with the neurotoxin 6-hydroxydopamine (6-OHDA, Sigma Aldrich 162957) at 50, 100 μM concentrations alone or in combination with AAT 25 μM (AAT plasma derived, Sigma Aldrich batch A9024). Cells treated with AAT alone or in combination with 6-OHDA for 24 hours, were then incubated with fresh AAT for additional 24 hours. Control cells were treated with PBS.
At day 0 cells were plated in equally number in 24-well plate, the day after they were treated as described above, and final total cell count was performed at day 4 of culture (cell growth). Cell viability was assessed with Cell Counting Kit-8 (CCK-8; Sigma Aldrich 96992). After treatments, cells were incubated with 10 μl of CCK-8 solution for 2 hours in the incubator. Absorbance was measured at 450 nm using SpectraMax iD3 Microplate Reader. Experiments were performed in triplicate.

The subject of a further assay is plasma IL-6. Description: Plasma IL-6 concentration, CMT1A mouse study (50 mg/kg twice daily). Format: in vivo. To be noted: for Plasma IL-6 concentration (Mean ± SD): CMT1A mice. On the procedure: Animals were split in 3 groups (wild-type control (subcutaneous 0.9% NaCl), CMT1A-vehicle (subcutaneous 0.9% NaCl), CMT1A-human alpha-1 antitrypsin (subcutaneous, twice daily, 50 mg/kg per injection)) of 3 mice each (3 weeks old males of 18±2.5 g at the beginning of study) and all went through the following protocol after 7 days of acclimation on site.
Starting from the age of 4 weeks, animals were subjected to blood samplings for the determination of interleukin-6 (IL-6) and tumor necrosing factor alpha (TNFα) levels, as described in FIG. 16.

Assay [1] relates to CMT1A mice B6.Cg-Tg(PMP22)C3Fbas/J. Description: Rotarod latency to fall, CMT mice treated with AAT 180 mg/kg/day sc. Format: in vivo, mouse. (Falling from the rotarod earlier than controls is read as motor impairment.)
The subject of another assay is plasma NfL. As to the kind of experiment: Plasma NfL, CMT mice treated with AAT 180 mg/kg/day sc. Format: in vivo, mouse. From the text:
Animals were received at 6 weeks of age and housed under controlled conditions for the duration of the study. The study comprised two groups of 8 transgenic mice (CMT mice) each and one group of 8 age matched wild type (WT) C57B16 mice, serving as positive control. Animals were assigned to the following subcutaneous treatments twice daily at 7:00 AM and 7:00 PM for 2 weeks, starting from 8 weeks and up to 10 weeks of age: • Wild-type (WT, no disease) mice receiving vehicle, 0.9% NaCl (positive control) • CMT1A mice receiving vehicle, 0.9% NaCl (negative control) • CMT1A mice receiving AAT at 90 mg/kg per injection (daily dose 180 mg/kg)
The efficacy parameters included: • neuromuscular performance (rotarod latency to fall and grip strength test), • sciatic nerve electrophysiology (CMAP amplitude and NCV) • cytokine (IL-6 and TNFα), as well as NfL analysis • sciatic nerve histology (number of axons and axonal diameter),
As supportive information for the mode of action of AAT in CMT, plasma concentration of interleukin 6 (IL-6) and TNFα were measured at Day 1 (8 weeks), Day 15 (10 weeks) and Day 30 (12 weeks). At the same timepoints, plasma levels of the biomarker of nerve damage, NfL were determined.

[2] abbreviates: CIDP mice, day 35, AAT 50 mg/kg sc twice daily.
Where [3] appears, read: baseline (6 weeks old), CMT + hAAT, individual animal.

Take alpha1-antitrypsin (AAT) protein: in the assay with CIDP mice (CIDP + AAT, day 35), the “axonal diameter compared to the CIDP+vehicle treated group” value is reported as “significant increase”, the “g-ratio compared to the CIDP+vehicle treated group” value is on record as “decrease” and the “total number of axons per surface compared to the vehicle treated group” value is given as “Slight but non-significant increase”. In the assay on CIDP mice (setting [2]), the “Sciatic nerve histology, Axonal diameter (Mean ± SEM)” value amounted to 3.82 ± 0.09 μm; the “Sciatic nerve histology, Axons/100 μm^2 (Mean ± SEM)” value is 26.00 ± 2.10; the “Sciatic nerve histology, g-ratio (Mean ± SEM)” value is listed as 0.715 ± 0.008. Also, in the assay with SH-SY5Y cells, the “number of cells counted compared to 6-OHDA alone” value is reported as “significantly increased”. Moreover, the “Plasma IL-6 concentration (Mean ± SD)” value in the assay on plasma IL-6 (Day 1 (baseline)) amounted to 34.19 ± 1.67 pg/mL. The “Plasma IL-6 concentration (Mean ± SD)” value with plasma IL-6 (Day 8) turned out to be 39.10 ± 1.91 pg/mL. The “Plasma IL-6 concentration (Mean ± SD)” value with plasma IL-6 (Day 14) is 84.21 ± 4.727 pg/mL. Besides, the “Plasma IL-6 concentration (Mean ± SD)” value in the assay with plasma IL-6 (Day 29) is on record as 90.20 ± 3.085 ^† pg/mL. Also, in the assay with plasma IL-6 (CMT + AAT, day 29), the “plasma IL-6 concentration vs animals treated with vehicle” value is recorded as “lower”. For the same substance, in assay [1] (CMT mice, AAT 90 mg/kg sc twice a day, 8 to 10 weeks of age, end of treatment), the “rotarod latency to fall vs CMT mice not treated with AAT” value is given as “significant increase”. For the same substance, in assay [1] (baseline (6 weeks old), CMT + hAAT, 8 animals), the “Rotarod latency, group Mean” value amounted to 71.46 s. Moreover, in assay [1] (setting [3]), the “Rotarod latency, Mean/animal” value is 53.43 s and 52.98 s and 66.74 s and 56.96 s and 66.75 s and 65.56 s and 106.66 s and 102.61 s; the “Rotarod latency, set 1” value was 53.47 s and 57.35 s and 69.94 s and 62.11 s and 65.03 s and 66.86 s and 110.28 s and 93.16 s; the “Rotarod latency, set 2” value is 57.11 s and 51.61 s and 67.40 s and 54.79 s and 72.92 s and 68.48 s and 109.55 s and 105.36 s; the “Rotarod latency, set 3” value is 49.72 s and 49.96 s and 62.87 s and 53.98 s and 62.30 s and 61.35 s and 100.14 s and 109.32 s. In the assay with plasma NfL (8 weeks old (baseline, Day 1), CMT1A + AAT), the “Plasma NfL (Mean ± SD)” value is on record as 3.83 ± 0.61 ng/mL. Further, the “Plasma NfL (Mean ± SD)” value in the assay on plasma NfL (10 weeks old (Day 15, after 2 weeks AAT 90 mg/kg sc twice daily)) was 1.96 ± 0.46 ng/mL. The “positive effect on NfL plasma levels” value in the assay with plasma NfL (12 weeks of age, after 2-week treatment-free period) is “remained significant”. For the same substance, the “Plasma NfL (Mean ± SD)” value in the assay with plasma NfL (12 weeks old (Day 30, after 2-week treatment-free period)) is 4.25 ± 0.36 ng/mL. Moreover, in the assay on plasma NfL (CMT mice, AAT 90 mg/kg sc twice a day), the “level of NfL” value is listed as “reduced”.
